Values of other authors as cited in patent US7422908B2, “Chemiluminescent 1,2-dioxetanes” (priority 2002, dated 2008).

Experiments:
[1] = compared with 1,2-dioxetanes (14) and (15); CH3 group replaced with CH2CH2CH2COOH
[2] = thermal decomposition

Row | SMILES | solubility in an aqueous system [1] | decomposes at (temperature) [2] [°C]
1 | O=C(O)CCCOC1(c2cccc(OP(=O)(O)O)c2)OOC12C1CC3CC(C1)CC2C3 (centres unmarked) [Dioxetane 16] | more soluble in an aqueous system than 1,2-dioxetane (14) and (15) | 
2 | C1C2CC3CC1CC(C2)C31OOC12C1CC3CC(C1)CC2C3 (centres unmarked) [Dioxetane 5] |  | 150
